Measured values taken from patent US8592383B2, “Cycloalkyl-fused tetrahydroquinolines as CRTH2 receptor modulators” (Merck Sharp & Dohme Corp., priority 2011, dated 2013).

Molecular target: T1, hCRTH2 (Homo sapiens, UniProt Q9Y5Y4)
T1 sequence (Q9Y5Y4 1-395): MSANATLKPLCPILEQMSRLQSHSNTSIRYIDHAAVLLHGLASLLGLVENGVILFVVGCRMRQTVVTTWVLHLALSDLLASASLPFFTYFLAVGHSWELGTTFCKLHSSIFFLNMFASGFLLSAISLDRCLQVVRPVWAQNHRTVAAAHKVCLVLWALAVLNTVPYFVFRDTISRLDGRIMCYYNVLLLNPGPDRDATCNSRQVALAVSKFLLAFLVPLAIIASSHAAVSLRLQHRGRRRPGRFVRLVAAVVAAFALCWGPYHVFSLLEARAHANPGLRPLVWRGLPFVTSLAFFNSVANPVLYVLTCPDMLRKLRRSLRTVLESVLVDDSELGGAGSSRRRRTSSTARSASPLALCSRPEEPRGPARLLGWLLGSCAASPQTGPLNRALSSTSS
Parameters: expressed in transfected cells; host or cells: HEK (human embryonic kidney) cells expressing hCRTH2
Settings: Radioligand Binding Assay B; 0.7 nM [3H]PGD2, HEK-hCRTH2 membranes
Protocol: The filters were then washed with 4 mL of the same buffer and residual radioligand bound to the filter was determined by liquid scintillation counting following equilibration in 25 μl Ultima Gold F™ (Unifilter) (Packard).

| Ki [nM] | Compound |
| --- | --- |
| 123 | CCN(C(=O)CCC(=O)O)C1c2ccccc2N(C(=O)c2cccnc2)C2CCCC12 (racemic) [13E, 4-{ethyl[cis,cis-4-(pyridin-3-ylcarbonyl)-2,3,3a,4,9,9a-hexahydro-1H-cyclopenta[b]quinolin-9-yl]amino}-4-oxobutanoic acid] |
| 9.9 | O=C(O)CCC(=O)N(C1CC1)C1c2ccccc2N(C(=O)c2ccsc2)C2CCCC21 (racemic) [14E, 4-{cyclopropyl[cis,cis-4-(thiophen-3-ylcarbonyl)-2,3,3a,4,9,9a-hexahydro-1H-cyclopenta[b]quinolin-9-yl]amino}-4-oxobutanoic acid] |
| 18.4 | O=C(O)CCC(=O)N(C1CC1)C1c2ccccc2N(C(=O)c2ccc(Cl)cc2)C2CCCC21 (racemic) [14K, 4-[{cis,cis-4-[(4-chlorophenyl)carbonyl]-2,3,3a,4,9,9a-hexahydro-1H-cyclopenta[b]quinolin-9-yl}(cyclopropyl)amino]-4-oxobutanoic acid] |
| 414 | COC(=O)CCC(=O)N(C1CC1)C1c2ccccc2N(C(=O)c2ccc(Cl)cc2)C2CCCC21 (racemic) [14P, methyl 4-[{cis,cis-4-[(4-chlorophenyl)carbonyl]-2,3,3a,4,9,9a-hexahydro-1H-cyclopenta[b]quinolin-9-yl}(cyclopropyl)amino]-4-oxobutanoate] |
| 140 | COC(=O)CCC(=O)N(C1CC1)C1c2ccc(F)cc2N(C(=O)c2ccccc2)C2CCCC21 (racemic) [16C, Methyl 4-{cyclopropyl[cis,cis-6-fluoro-4-(phenylcarbonyl)-2,3,3a,4,9,9a-hexahydro-1H-cyclopenta[b]quinolin-9-yl]amino}-4-oxobutanoate] |

Same assay, conditions: Radioligand Binding Assay B; Table B, rated A-D

| Compound | Ki [nM] |
| --- | --- |
| COC(=O)CCC(=O)N(c1ccccc1)C1c2ccccc2N(C(=O)c2cccnc2)C2CCCC21 (racemic) [12B, methyl 4-oxo-4-{phenyl[cis, cis-4-(pyridin-3-ylcarbonyl)-2,3,3a,4,9,9a-hexahydro-1H-cyclopenta[b]quinolin-9-yl]amino}butanoate] | 20.1 to 200 |
| O=C(O)CCC(=O)N(c1ccccc1)C1c2ccccc2N(C(=O)OCc2ccccc2)C2CCCC21 (racemic) [12C, 4-[{cis,cis-4-[(benzyloxy)carbonyl]-2,3,3a,4,9,9a-hexahydro-1H-cyclopenta[b]quinolin-9-yl}(phenyl)amino]-4-oxobutanoic acid] | 5.1 to 20 |
| O=C(O)CCC(=O)N(c1ccccc1)C1c2ccccc2N(C(=O)c2cccnc2)C2CCCC21 (racemic) [12D, 4-oxo-4-{phenyl[cis,cis-4-(pyridin-3-ylcarbonyl)-2,3,3a,4,9,9a-hexahydro-1H-cyclopenta[b]quinolin-9-yl]amino}butanoic acid] | 5.1 to 20 |
| O=C(O)CCC(=O)N(c1ccccc1)C1c2ccccc2N(C(=O)c2ccccc2)C2CCCC21 (racemic) [12E, 4-oxo-4-{phenyl[cis,cis-4-(phenylcarbonyl)-2,3,3a,4,9,9a-hexahydro-1H-cyclopenta[b]quinolin-9-yl]amino}butanoic acid] | 5.1 to 20 |
| CCN(C(=O)CCC(=O)O)C1c2ccccc2N(C(=O)c2ccc(OC(F)(F)F)cc2)C2CCCC12 (racemic) [13C, 4-{ethyl [cis,cis-4-{[4-(trifluoromethoxy)phenyl]carbonyl}-2,3,3a,4,9,9a-hexahydro-1H-cyclopenta[b]quinolin-9-yl]amino}-4-oxobutanoic acid] | 5.1 to 20 |
| CCN(C(=O)CCC(=O)O)C1c2ccccc2N(C(=O)c2ccccc2)C2CCCC12 (racemic) [13D, 4-{ethyl[cis,cis-4-(phenylcarbonyl)-2,3,3a,4,9,9a-hexahydro-1H-cyclopenta[b]quinolin-9-yl]amino}-4-oxobutanoic acid] | 5.1 to 20 |
| CCN(C(=O)CCC(=O)O)C1c2ccccc2N(C(=O)c2cccnc2)C2CCCC12 (racemic) [13E, 4-{ethyl[cis,cis-4-(pyridin-3-ylcarbonyl)-2,3,3a,4,9,9a-hexahydro-1H-cyclopenta[b]quinolin-9-yl]amino}-4-oxobutanoic acid] | 20.1 to 200 |
| O=C(O)CCC(=O)N(C1CC1)C1c2ccccc2N(C(=O)c2ccc(OC(F)(F)F)cc2)C2CCCC21 (racemic) [14C, 4-{cyclopropyl[cis,cis-4-{[4-(trifluoromethoxy)phenyl]carbon-yl}-2,3,3a,4,9,9a-hexahydro-1H-cyclopenta[b]quinolin-9-yl]amino}-4-oxobutanoic acid] | 5.1 to 20 |
| Cn1c(C(=O)N2c3ccccc3C(N(C(=O)CCC(=O)O)C3CC3)C3CCCC32)cc2ccccc21 (racemic) [14D, 4-(cyclopropyl{cis,cis-4-[(1-methyl-1H-indol-2-yl)carbonyl]-2,3,3a,4,9,9a-hexahydro-1H-cyclopenta[b]quinolin-9-yl}amino)-4-oxobutanoic acid] | 5.1 to 20 |
| O=C(O)CCC(=O)N(C1CC1)C1c2ccccc2N(C(=O)c2ccsc2)C2CCCC21 (racemic) [14E, 4-{cyclopropyl[cis,cis-4-(thiophen-3-ylcarbonyl)-2,3,3a,4,9,9a-hexahydro-1H-cyclopenta[b]quinolin-9-yl]amino}-4-oxobutanoic acid] | 5.1 to 20 |
| O=C(O)CCC(=O)N(C1CC1)C1c2ccccc2N(C(=O)c2ccc(Br)cc2)C2CCCC21 (racemic) [14F, 4-[{cis,cis-4-[(4-bromophenyl)carbonyl]-2,3,3a,4,9,9a-hexahydro-1H-cyclopenta[b]quinolin-9-yl}(cyclopropyl)amino]-4-oxobutanoic acid] | 5.1 to 20 |
| O=C(O)CCC(=O)N(C1CC1)C1c2ccccc2N(C(=O)C2CC2)C2CCCC21 (racemic) [14G, 4-{cyclopropyl[cis,cis-4-(cyclopropylcarbonyl)-2,3,3a,4,9,9a-hexahydro-1H-cyclopenta[b]quinolin-9-yl]amino}-4-oxobutanoic acid] | 20.1 to 200 |
| O=C(O)CCC(=O)N(C1CC1)C1c2ccccc2N(C(=O)c2cccc(N3CCOCC3)c2)C2CCCC21 (racemic) [14H, 4-(cyclopropyl{cis,cis-4-[(3-morpholin-4-ylphenyl)carbonyl]-2,3,3a,4,9,9a-hexahydro-1H-cyclopenta[b]quinolin-9-yl}amino)-4-oxobutanoic acid] | 20.1 to 200 |
| O=C(O)CCC(=O)N(C1CC1)C1c2ccccc2N(C(=O)c2ccc(Cl)cc2)C2CCCC21 (racemic) [14K, 4-[{cis,cis-4-[(4-chlorophenyl)carbonyl]-2,3,3a,4,9,9a-hexahydro-1H-cyclopenta[b]quinolin-9-yl}(cyclopropyl)amino]-4-oxobutanoic acid] | 5.1 to 20 |
| COc1ccc(C(=O)N2c3ccccc3C(N(C(=O)CCC(=O)O)C3CC3)C3CCCC32)cc1 (racemic) [14L, 4-(cyclopropyl{cis,cis-4-[(4-methoxyphenyl)carbonyl]-2,3,3a,4,9,9a-hexahydro-1H-cyclopenta[b]quinolin-9-yl}amino)-4-oxobutanoic acid] | 20.1 to 200 |
| COC(=O)CCC(=O)N(C1CC1)C1c2ccccc2N(C(=O)c2cc3ccccc3n2C)C2CCCC21 (racemic) [14N, methyl 4-(cyclopropyl{cis,cis-4-[(1-methyl-1H-indol-2-yl)carbonyl]-2,3,3a,4,9,9a-hexahydro-1H-cyclopenta[b]quinolin-9-yl}amino)-4-oxobutanoate] | 201 to 7500 |
| COC(=O)CCC(=O)N(C1CC1)C1c2ccccc2N(C(=O)c2ccc(Cl)cc2)C2CCCC21 (racemic) [14P, methyl 4-[{cis,cis-4-[(4-chlorophenyl)carbonyl]-2,3,3a,4,9,9a-hexahydro-1H-cyclopenta[b]quinolin-9-yl}(cyclopropyl)amino]-4-oxobutanoate] | 201 to 7500 |
| O=C(O)CCC(=O)N(C1CC1)C1c2ccccc2N(C(=O)c2cccnc2)C2CCCC21 (racemic) [14i, 4-{cyclopropyl[cis,cis-4-(pyridin-3-ylcarbonyl)-2,3,3a,4,9,9a-hexahydro-1H-cyclopenta[b]quinolin-9-yl]amino}-4-oxobutanoic acid] | 20.1 to 200 |
| COC(=O)CCC(=O)N(C1CC1)C1c2ccccc2N(C(=O)c2ccsc2)C2CCCC21 (racemic) [14o, methyl 4-{cyclopropyl[cis,cis-4-(thiophen-3-ylcarbonyl)-2,3,3a,4,9,9a-hexahydro-1H-cyclopenta[b]quinolin-9-yl]amino}-4-oxobutanoate] | 201 to 7500 |

Further lines, results first:

| Ki [nM] | Compound |
| --- | --- |
| 20.1 to 200 | 4-{cyclopropyl[cis,cis-6-fluoro-4- (phenylcarbonyl)-2,3,3a,4,9,9a- hexahydro-1H- cyclopenta[b]quinolin-9-yl]amino}- 4-oxobutanoic acid [16D] |
| 201 to 7500 | COC(=O)CCC(=O)N(C1CC1)C1c2ccc(F)cc2N(C(=O)c2cccnc2)C2CCCC21 (racemic) [16A, Methyl 4-{cyclopropyl[cis,cis-6-fluoro-4-(pyridin-3-ylcarbonyl)-2,3,3a,4,9,9a-hexahydro-1H-cyclopenta[b]quinolin-9-yl]amino}-4-oxobutanoate] |
| 5.1 to 20 | COC(=O)CCC(=O)N(C1CC1)C1c2ccc(F)cc2N(C(=O)c2ccc(Oc3ccccc3)cc2)C2CCCC21 (racemic) [16B, Methyl 4-{cyclopropyl[cis,cis-6-fluoro-4-[(4-phenoxyphenyl)carbonyl]-2,3,3a,4,9,9a-hexahydro-1H-cyclopenta[b]quinolin-9-yl}amino)-4-oxobutanoate] |
| 20.1 to 200 | COC(=O)CCC(=O)N(C1CC1)C1c2ccc(F)cc2N(C(=O)c2ccccc2)C2CCCC21 (racemic) [16C, Methyl 4-{cyclopropyl[cis,cis-6-fluoro-4-(phenylcarbonyl)-2,3,3a,4,9,9a-hexahydro-1H-cyclopenta[b]quinolin-9-yl]amino}-4-oxobutanoate] |
| 1 to 5 | O=C(O)CCC(=O)N(C1CC1)C1c2ccc(F)cc2N(C(=O)c2ccc(Oc3ccccc3)cc2)C2CCCC21 (racemic) [16E, 4-{cyclopropyl[cis,cis-6-fluoro-4-[(4-phenoxyphenyl)carbonyl]-2,3,3a,4,9,9a-hexahydro-1H-cyclopenta[b]quinolin-9-yl}amino)-4-oxobutanoic acid] |
| 201 to 7500 | O=C(O)/C=C/C(=O)N(CC1CC1)C1c2ccccc2N(C(=O)c2ccccc2)C2CCCC12 (racemic) [17H, (2E)-4-[[cis,cis-4-benzoyl-2,3,3a,4,9,9a-hexahydro-1H-cyclopenta[b]quinolin-9-yl](cyclopropylmethyl)amino]-4-oxo-2-butenoic acid] |
| 201 to 7500 | CN(C(=O)CCCC(=O)O)C1c2ccccc2N(C(=O)c2ccccc2)C2CCCC12 (racemic) [17N] |
| 201 to 7500 | CN(C(=O)/C=C/C(=O)O)C1c2ccccc2N(C(=O)c2ccccc2)C2CCCC12 (racemic) [17P, (2E)-4-[[cis,cis-4-benzoyl-2,3,3a,4,9,9a-hexahydro-1H-cyclopenta[b]quinolin-9-yl]methylamino]-4-oxo-2-butenoic acid] |
| 201 to 7500 | CN(C(=O)/C=C/C(=O)O)C1c2ccccc2N(C(=O)c2ccc(OC(F)(F)F)cc2)C2CCCC12 (racemic) [17Q, (2E)-4-[[cis,cis-2,3,3a,4,9,9a-hexahydro-4-[4-(trifluoromethoxy)benzoyl]-1H-cyclopenta[b]quinolin-9-yl]methylamino]-4-oxo-2-butenoic acid] |
